These molecules were tested on Plasmodium falciparum (assay: In vitro antimalarial activity against chloroquine-sensitive Plasmodium falciparum NF 54).
Assay type: functional, organism-based

SMILES | IC50 [nM]
CC1(OC(=O)C(=O)N(Cc2ccccc2)Cc2ccccc2)CCC2CC1OO[C@@]2(C)CS(=O)(=O)c1ccccc1 (some centres undefined) | 21
CC1(OC(=O)C(=O)N(Cc2ccccc2)Cc2ccccc2)CCC2CC1OO[C@]2(C)CS(=O)(=O)c1ccccc1 (some centres undefined) | 81
CC1(O)CCC2CC1OO[C@@]2(C)CS(=O)(=O)c1ccccc1 (some centres undefined) | 55
C[C@@H]1C(=O)C[C@H]2CC1OO[C@@]2(C)/C=C\c1ccc(C(F)(F)F)cc1C(F)(F)F (single isomer, unassigned) [ARTEFLENE] | 71
CC(=O)CC(=O)OC1(C)CCC2CC1OO[C@@]2(C)CS(=O)(=O)c1ccccc1 (some centres undefined) | 46
CC1(CSc2ccccc2)OOC2CC1CC[C@@]2(C)O.CC1(CSc2ccccc2)OOC2CC1CC[C@]2(C)O (some centres undefined) | > 2500
CC1(O)CCC2CC1OO[C@]2(C)CS(=O)(=O)c1ccccc1 (some centres undefined) | 89
COc1ccc(COC2(C)CCC3CC2OO[C@@]3(C)CS(=O)(=O)c2ccccc2)cc1 (some centres undefined) | 14
CC(=O)CC(=O)OC1(C)CCC2CC1OO[C@]2(C)CS(=O)(=O)c1ccccc1 (some centres undefined) | 73
CCOC(=O)C(=O)OC1(C)CCC2CC1OO[C@@]2(C)CS(=O)(=O)c1ccccc1 (some centres undefined) | 170
CC(=O)OC1(C)CCC2CC1OO[C@]2(C)CS(=O)(=O)c1ccccc1 (some centres undefined) | 17
C[C@@H]1CC[C@H]2[C@@H](C)C(=O)O[C@@H]3O[C@@]4(C)CC[C@@H]1[C@]32OO4 [ARTEMISININ] | 9.3
CC(=O)OC1(C)CCC2CC1OO[C@@]2(C)CS(=O)(=O)c1ccccc1 (some centres undefined) | 17
CCOC(=O)C(=O)OC1(C)CCC2CC1OO[C@]2(C)CS(=O)(=O)c1ccccc1 (some centres undefined) | 140

Reference: ChEMBL document CHEMBL1130787, “Synthesis and in vitro antimalarial activity of sulfone endoperoxides” (Bioorg Med Chem Lett, 1998)
